Test [1] concerns p75^NTR /TrkA. Nature of the test: Receptor crosslinking of 125I-NGF with transition metal ions (receptor selectivity). In kind it is binding. Here is the method:
To explore the ability of other transition metals to influence the biological activities of NGF, a series of cations known to mimic in certain respects the binding of zinc to proteins were tested. […] For this reason these ions were not tested in NGF- dependant growth phenomena. […] As these studies appeared to indicate potentially complex results upon metal ions binding to NGF, a receptor crosslinking system where specific receptor types could be identified was utilized.

Test [2] has as its target T1, p75^NTR and TrkA (Mus musculus, UniProt P01139).
T1 construct: these cells express both NGF receptor types; endogenous in cells; host or cells: PC12 rat pheochromocytoma cells
Nature of the test: Binding of 125I-NGF to PC12 cells (p75NTR + TrkA). The arrangement: species or system rat. To be noted: 120 min; for steady-state specific binding of 125I-NGF (0.5 nM) to p75NTR and TrkA: ± SEM. How it is done:
(§1) PC12 cells were grown in RPMI with 10% heat inactivated donor horse serum and 5% fetal calf serum. […] The tubes were incubated for 2 hr at 4° C. and 100 μl aliquots (providing triplicate data points for each sample) were transferred to 400 μl microcentrifuges containing 200 μl of 10% glycerol in HKR. Tubes were centrifuged for 2 minutes at 5,000 rpm, the tip containing the cell pellet cut off and radioactivity bound to the cells was determined.

Test [3] deals with p75^NTR and TrkA. Description: Binding of 125I-NGF to PC12 cells (p75NTR + TrkA). The arrangement: species or system rat. To be noted: above 100 μM. Here is the method: as §1
In test [4] the test system is T2, p75^NTR and TrkA.
T2 construct: these cells express both NGF receptor types; endogenous in cells; host or cells: PC12 rat pheochromocytoma cells
Nature of the test: Binding of 125I-NGF to PC12 cells (p75NTR + TrkA). The arrangement: species or system rat. To be noted: 100 μM; CaEDTA together with Zn2+. Here is the method: as §1
T2 sequence (P01139 122-239): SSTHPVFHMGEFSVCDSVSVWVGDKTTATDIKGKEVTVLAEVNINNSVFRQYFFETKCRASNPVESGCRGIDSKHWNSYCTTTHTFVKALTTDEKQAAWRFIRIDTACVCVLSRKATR

The subject of test [5] is p75. Description: Affinity cross-linking of 125I-NGF to p75 on PC12 cells. In kind it is binding, rat. To be noted: for Inhibition of p75 Interaction: 0.1 nM 125I-NGF, PC12 cells. Here is the method:
The ability of the peptides under study to interfere with binding of NGF to NGF receptors was evaluated by analysis of inhibition of the chemical cross-linking of ^251 I-NGF to the common neurotrophin receptor p75 (Chao, J. Neurobiol. 25:1373-1385 (1994)) and the specific NGF receptor TrkA (Barbacid, J. Neurobiol. 25: 1386-1403 (1994)). Immunoprecipitation and polyacrylamide gel electrphoresis of cross linked receptors allowed identification of both receptors, as shown in FIG. 7A. […] At concentrations of 200 μM, neither R11(l) nor R11(m) were able to inhibit greater than 50% of the observed ^125 I-labelling.
The ability of the peptides derived from the 68-58/108-110 region of NGF to antagonize NGF interaction with the p75 and TrkA receptors was determined The peptides tested were bicyclic (BC) 68-58/108-110, cyclic (C) 68-58/108-110, and linear (L) 68-58/108-110, each of which are illustrated in FIGS. 2 and 5D
Receptor cross-linking studies were performed on PC12 rat pheochromocytoma cells (ATCC CRL 1721; Greene et al., Proc. Natl. Acad. Sci. USA 73: 2424-2432 (1976)) which were maintained in RPMI1640 (Gibco) supplemented with 10% fetal calf serum (Gibco). Cells were harvested by incubation and trituration in Ca^2+ and Mg^2+ free Gey's balanced salt solution, washed and suspended in 10 mM HEPES buffer (pH 7.35) containing 125 mM NaCl, 4.8 mM KCl, 1.3 mM CaCl2, […], 1.2 mM KH2 PO4, 1 g/L sucrose and 1 g/L bovine serum albumin (HEPES Krebs Ringer buffer, HKR buffer) at 10^6 cells/mL. Subsequent procedures were carried out at 4° C. unless otherwise noted.
For receptor crosslinking, ^125 I-NGF was prepared by the method of Sutter et al. (J. Biol. Chem. 254: 5972-5982 (1979)) from NGF isolated from mouse submaxillary gland (as described in Mobley et al., Biochemistry 15:1543 (1976)) obtained from Cedarlane.
[…] Control PC12 cells were incubated in HKR buffer in the presence of ^125 I-NGF only (no NGF peptide).
Receptor proteins were cross-linked with either 0.4 mM bis(sulfosuccinimidyl)suberate (BS^3, Pierce) for TrkA, or a combination of 2 mM […] (EDC) and 2 mM N-hydroxysulfosuccinimide (S-NHS) for p75^NTR as indicated. All cross-linking agents (from Pierce) were dissolved in water and added in 20 μL aliquots and the reaction allowed to proceed for 30 min at 25° C. On completion of the cross-linking reaction, the cells were washed three times in HKR buffer with BSA at 4° C. to remove excess free radiolabelled ligand and reagents. The cells were solubilized in 100 μL SDS sample buffer Samples were separated on a modified Laemmli discontinues acrylamide gel system (Laemmli, Nature 227:680 (1970)) using 4% SDS-PAGE stacking gel and a gradient urea polyacrylamide separating gel ranging from 4.5% acrylamide/18% urea to 7.5% acrylamide/48% urea. The gels were fixed and processed for autoradiography using -70° C. exposure with Kodak XAR film and manual processing (FIG. 7B).
For positive receptor identification, immunoprecipitation studies were performed. Samples of 10^7 cells in 1 mL HKR buffer were cross-linked under the conditions described above, washed in HKR buffer and solubilized in non-denaturing lysis buffer (1% NP40, 10% glycerol, 1 mM phenylmethylsulfonylfluoride, 10 μg/mL leupeptin and 0.5 mM o-vanadate in Tris-buffered saline) (Kaplan et al., Nature 350:1 158-160 (1991)). The solutions were clarified by centrifugation and immunoprecipitated with either mAb 192 (monoclonal antibody for p75; Cedarlane) or rabbit anti-TrkA, which had been raised against a COOH-terminal peptide of TrkA. The ^125 I-NGF cross-linked receptor-antibody complexes were isolated using 50 μL of a 50% solution of rabbit anti-mouse agarose (Sigma; for mAb 192) or protein A-Sepharose (Pharmcia; for anti-Trk) equilibrated in lysis buffer. Immunoprecipitates were washed three times in lysis buffer and the pellets denatured in SDS reducing sample buffer. […]

Bridges are numbered along the chain shown (N, C = ends).

T1 sequence (P01139 122-239): as above
p75^NTR /TrkA, sequence (P01139 122-239): as above
p75^NTR /TrkA, sequence (P07174 30-425 partner): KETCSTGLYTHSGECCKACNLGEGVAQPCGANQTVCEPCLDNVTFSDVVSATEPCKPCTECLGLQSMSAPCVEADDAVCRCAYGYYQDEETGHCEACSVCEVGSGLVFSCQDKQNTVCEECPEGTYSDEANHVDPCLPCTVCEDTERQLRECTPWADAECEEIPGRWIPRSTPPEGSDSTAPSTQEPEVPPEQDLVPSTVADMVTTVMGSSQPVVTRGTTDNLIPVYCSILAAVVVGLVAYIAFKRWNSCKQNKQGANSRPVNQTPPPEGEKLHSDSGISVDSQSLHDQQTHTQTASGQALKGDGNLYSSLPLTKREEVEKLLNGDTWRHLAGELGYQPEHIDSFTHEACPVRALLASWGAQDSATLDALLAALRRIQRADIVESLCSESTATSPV
p75^NTR /TrkA, sequence (P35739 33-799 partner): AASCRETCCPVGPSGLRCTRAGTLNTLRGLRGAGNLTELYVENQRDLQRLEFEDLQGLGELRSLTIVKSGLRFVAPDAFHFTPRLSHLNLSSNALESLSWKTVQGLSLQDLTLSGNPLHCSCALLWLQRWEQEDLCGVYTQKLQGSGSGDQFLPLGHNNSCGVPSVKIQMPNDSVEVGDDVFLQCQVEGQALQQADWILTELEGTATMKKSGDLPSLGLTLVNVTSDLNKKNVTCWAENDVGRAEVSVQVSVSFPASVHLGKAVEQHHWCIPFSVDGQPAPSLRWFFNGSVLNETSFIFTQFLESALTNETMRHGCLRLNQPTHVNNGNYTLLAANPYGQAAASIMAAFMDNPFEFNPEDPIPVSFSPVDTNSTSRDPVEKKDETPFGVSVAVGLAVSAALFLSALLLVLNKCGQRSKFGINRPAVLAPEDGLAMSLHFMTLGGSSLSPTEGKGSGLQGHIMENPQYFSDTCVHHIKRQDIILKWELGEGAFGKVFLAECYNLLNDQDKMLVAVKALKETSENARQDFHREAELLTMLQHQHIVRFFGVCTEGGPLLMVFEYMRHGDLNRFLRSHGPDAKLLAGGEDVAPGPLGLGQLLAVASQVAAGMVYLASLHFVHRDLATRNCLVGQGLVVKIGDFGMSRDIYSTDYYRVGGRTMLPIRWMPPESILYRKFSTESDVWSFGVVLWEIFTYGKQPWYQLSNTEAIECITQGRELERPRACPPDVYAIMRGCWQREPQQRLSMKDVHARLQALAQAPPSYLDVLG

On to `[Zn+2]` [Zn^2+], for which the “Blocking of NGF binding to TrkA and p75NTR in receptor crosslinking” value in test [1] was “blocked binding to both receptors”. For the same compound, the “steady-state specific binding of 125I-NGF (0.5 nM) to p75NTR and TrkA” value in test [2] (10 μM) was 88 ± 13 % Control; in test [2] (30 μM), 82 ± 10 % Control; in test [2] (50 μM) it was 44 ± 13 % Control; in test [2] (100 μM), 19 ± 9 % Control. Further, in test [2] (100 μM, 125I-NGF), the “Total Binding to PC12 cells” value is 21 ± 5 % control. The “Non-specific binding of 125I-NGF” value in test [3] is on record as “altered non-specific binding”. Moreover, the “Inhibition of 125I-NGF binding” value in test [4] is listed as “effectively blocked binding”.

Turning to “NH2 -Cys-Gly-Ser-Glu-Val-Pro-Asn-Ser-Ala-Arg-Cys-Cys-Val-Cys-OH (H-CGSEVPNSARCCVC-OH; disulfide 1-14, 11-12) [R11, bicyclic peptide of NGF residues 68-58/108-110, two disulfide bonds]”, the “Inhibition of p75 Interaction” value in test [5] (20 μM peptide) is “+ (indicates less than 50% inhibition)”; in test [5] (200 μM peptide, listed as BC), “++ (indicates greater than 50% inhibition)”. In addition, the “Covalent attachment of 125I-NGF to receptor (p75)” value in test [5] (200 μM, result in words) was “effectively prevented the covalent attachment”.

The values are drawn from patent publication US6291247A, “Methods of screening for factors that disrupt neurotrophin conformation and reduce neurotrophin biological activity” (priority 1996, dated 2001).
